# From US20100144672A1, “PYRIMIDINYL PYRAZOLES AS INSECTICIDES AND PARASITICIDE ACTIVE AGENTS” (BAYER CROPSCIENCE AG, priority 2006, published 2010)
# Assays:
# Assay type in all cases: in vivo
# [1] = test system: caterpillars of the army worm (Spodoptera frugiperda); assay: Spodoptera frugiperda test (SPODFR spray treatment); settings: 168 h, application rate 500 g/ha, after 7 d, read-out: activity (effect in %, caterpillars killed)
# Description: Spodoptera frugiperda Test (SPODFR Spray Treatment) [table] To produce a suitable preparation of active compound, 1 part by weight of active compound is mixed with the stated amounts of solvents and emulsifier, and the concentrate is diluted with emulsifier-containing water to the desired concentration. Discs of maize leaves (Zea mays) are sprayed with an active compound preparation of the desired concentration and, after drying, populated with caterpillars of the army worm (Spodoptera frugiperda). After the desired period of time, the effect in % is determined 100% means that all caterpillars have been killed; 0% means that none of the caterpillars have been killed.
# [2] = test system: larvae of the mustard beetle (Phaedon cochleariae); assay: Phaedon test (PHAECO spray treatment); settings: 168 h, application rate 500 g/ha, after 7 d, read-out: activity (effect in %, beetle larvae killed)
# Description: Phaedon Test ([…] Spray Treatment) [table] To produce a suitable preparation of active compound, 1 part by weight of active compound is mixed with the stated amounts of solvents and emulsifier, and the concentrate is diluted with emulsifier-containing water to the desired concentration. Discs of chinese cabbage (Brassica pekinensis) are sprayed with an active compound preparation of the desired concentration and, after drying, populated with larvae of the mustard beetle (Phaedon cochleariae). After the desired period of time, the effect in % is determined 100% means that all beetle larvae have been killed; 0% means that none of the beetle larvae have been killed.
# Lucilia cuprina larvae = assay: Lucilia cuprina test (LUCICU); settings: 48 h, application rate 100 ppm, after 2 d, treated horse meat, read-out: activity (kill in %, larvae)
# Description: Lucilia cuprina Test (LUCICU) Solvent: dimethyl sulphoxide To produce a suitable preparation of active compound, 1 part by weight of active compound is mixed with the stated amount of water, and the concentrate is diluted with water to the desired concentration. Containers containing horse meat treated with the active compound preparation of the desired concentration are populated with Lucilia cuprina larvae. After the desired period of time, the kill in % is determined 100% means that all larvae have been killed; 0% means that none of the larvae have been killed.
Compound,pest or weed control at 500 g/ha [1] [%],pest or weed control at 500 g/ha [2] [%],pest or weed control at 100 ppm (Lucilia cuprina larvae) [%]
"Nc1c(-c2ccc(Cl)cc2)c(C(F)(F)F)nn1-c1ncccn1 [Example 1-6, 4-(4-chlorophenyl)-1-pyrimidin-2-yl-3-(trifluoromethyl)-1H-pyrazole-5-amine]",≥ 80,≥ 80,≥ 80
"Nc1c(-c2ccc(Br)cc2)c(C(F)(F)F)nn1-c1ncccn1 [Example 1-9, 4-(4-bromophenyl)-1-pyrimidin-2-yl-3-(trifluoromethyl)-1H-pyrazole-5-amine]",≥ 80,≥ 80,≥ 80
"Nc1c(-c2ccc(F)c(Cl)c2)c(C(F)(F)F)nn1-c1ncccn1 [Example 1-79, 4-(3-chloro-4-fluorophenyl)-1-pyrimidin-2-y1-3-(trifluoromethyl)-1H-pyrazole-5-amine]",≥ 80,≥ 80,≥ 80
"Nc1c(-c2ccc(Cl)c(Cl)c2)c(C(F)(F)F)nn1-c1ncccn1 [Example 1-80, 4-(3,4-dichlorophenyl)-1-pyrimidin-2-yl-3-(trifluoromethyl)-1H-pyrazole-5-amine]",≥ 80,≥ 80,≥ 80
"Nc1c(-c2ccc(Cl)c(Br)c2)c(C(F)(F)F)nn1-c1ncccn1 [Example 1-87, 4-(3-bromo-4-chlorophenyl)-2-pyrimidin-2-yl-5-(trifluoromethyl)-2H-pyrazol-3-ylamine]",≥ 80,≥ 80,–
"Nc1c(-c2cc(Cl)cc(C(F)(F)F)c2)c(C(F)(F)F)nn1-c1ncccn1 [Example 3-25, 4-(3-chloro-5-trifluoromethylphenyl)-2-pyrimidin-2-yl-5-trifluoromethyl-2H-pyrazol-3-ylamine]",≥ 80,≥ 80,≥ 80
COc1ccc(-c2c(C(F)(F)F)nn(-c3ncccn3)c2N)cc1 [Example 5-22],–,≥ 80,≥ 80
Nc1c(-c2ccc(SC(F)(F)F)cc2)c(C(F)(F)F)nn1-c1ncccn1 [Example 5-62],–,≥ 80,≥ 80
CN(C)c1ccc(-c2c(C(F)(F)F)nn(-c3ncccn3)c2N)cc1 [Example 5-89],–,≥ 80,–
Nc1c(-c2cccc(SC(F)(F)F)c2)c(C(F)(F)F)nn1-c1ncccn1 [Example 6-61],–,≥ 80,–
N#Cc1cccc(-c2c(C(F)(F)F)nn(-c3ncccn3)c2N)c1 [Example 6-70],≥ 80,≥ 80,–
Nc1c(-c2cccc([N+](=O)[O-])c2)c(C(F)(F)F)nn1-c1ncccn1 [Example 6-78],≥ 80,≥ 80,–
"CC(C)Oc1ccc(-c2c(C(F)(F)F)nn(-c3ncccn3)c2N)cc1Cl [Example 8-92, 4-(3-chloro-4-isopropoxyphenyl)-2-pyrimidin-2-yl-5-trifluoromethyl-2H-pyrazol-3-ylamine]",–,≥ 80,–
"CNc1c(-c2ccc(Br)cc2)c(C(F)(F)F)nn1-c1ncccn1 [Example 11-10, 4-(4-bromophenyl)-N-methyl-1-pyrimidin-2-yl-3-(trifluoromethyl)-1H-pyrazole-5-amine]",–,≥ 80,–
"CCNc1c(-c2ccc(Cl)cc2)c(C(F)(F)F)nn1-c1ncccn1 [Example 12-7, 4-(4-chlorophenyl)-N-ethyl-l-pyrimidin-2-yl-3-(trifluoromethyl)-1H-pyrazole-5-amine]",≥ 80,≥ 80,≥ 80
FC(F)(F)c1nn(-c2ncccn2)c(Cl)c1-c1ccc(Cl)cc1 [Example 14-7],≥ 80,≥ 80,≥ 80
"CC(=O)N(C(C)=O)c1c(-c2ccc(Cl)c(Cl)c2)c(C(F)(F)F)nn1-c1ncccn1 [Example 29-37, N,N-diacetyl-4-(3,4-dichlorophenyl)-1-pyrimidin-2-yl-3-(trifluoromethyl)-1H-pyrazole-5-amine]",≥ 80,≥ 80,–
